In US12522572B2, “Isoxazole hydroxamic acids as histone deacetylase 6 inhibitors” (The George Washington University, A Congressionally …, priority 2017, dated 2026):
Entries after “also recorded” stand apart in the source; their conditions may differ.

Assays:
Human HDAC1 = biological target: T1, Human HDAC1 (Homo sapiens, UniProt Q13547); assay: HDAC isoform inhibition, HDAC1; format: biochemical; details: duplicate 10-dose IC50 mode, 3-fold serial dilution starting at 30 μM
T1 construct: Full length with C-terminal GST tag, MW=79.9 kDa; GST (C); host or cells: Sf9 insect cells, baculovirus expression system

Human HDAC6 = biological target: T2, Human HDAC6 (Homo sapiens, UniProt Q9UBN7); assay: HDAC isoform inhibition, HDAC6; format: biochemical; details: for IC50: duplicate 10-dose IC50 mode, 3-fold serial dilution starting at 30 μM; for Selectivity HDAC1/HDAC6: ratio of HDAC1 IC50 to HDAC6 IC50
T2 construct: Full length with N-terminal GST tag, MW=159 kDa; GST (N); host or cells: Sf9 insect cells, baculovirus expression system
T2 sequence (Q9UBN7 1-1215): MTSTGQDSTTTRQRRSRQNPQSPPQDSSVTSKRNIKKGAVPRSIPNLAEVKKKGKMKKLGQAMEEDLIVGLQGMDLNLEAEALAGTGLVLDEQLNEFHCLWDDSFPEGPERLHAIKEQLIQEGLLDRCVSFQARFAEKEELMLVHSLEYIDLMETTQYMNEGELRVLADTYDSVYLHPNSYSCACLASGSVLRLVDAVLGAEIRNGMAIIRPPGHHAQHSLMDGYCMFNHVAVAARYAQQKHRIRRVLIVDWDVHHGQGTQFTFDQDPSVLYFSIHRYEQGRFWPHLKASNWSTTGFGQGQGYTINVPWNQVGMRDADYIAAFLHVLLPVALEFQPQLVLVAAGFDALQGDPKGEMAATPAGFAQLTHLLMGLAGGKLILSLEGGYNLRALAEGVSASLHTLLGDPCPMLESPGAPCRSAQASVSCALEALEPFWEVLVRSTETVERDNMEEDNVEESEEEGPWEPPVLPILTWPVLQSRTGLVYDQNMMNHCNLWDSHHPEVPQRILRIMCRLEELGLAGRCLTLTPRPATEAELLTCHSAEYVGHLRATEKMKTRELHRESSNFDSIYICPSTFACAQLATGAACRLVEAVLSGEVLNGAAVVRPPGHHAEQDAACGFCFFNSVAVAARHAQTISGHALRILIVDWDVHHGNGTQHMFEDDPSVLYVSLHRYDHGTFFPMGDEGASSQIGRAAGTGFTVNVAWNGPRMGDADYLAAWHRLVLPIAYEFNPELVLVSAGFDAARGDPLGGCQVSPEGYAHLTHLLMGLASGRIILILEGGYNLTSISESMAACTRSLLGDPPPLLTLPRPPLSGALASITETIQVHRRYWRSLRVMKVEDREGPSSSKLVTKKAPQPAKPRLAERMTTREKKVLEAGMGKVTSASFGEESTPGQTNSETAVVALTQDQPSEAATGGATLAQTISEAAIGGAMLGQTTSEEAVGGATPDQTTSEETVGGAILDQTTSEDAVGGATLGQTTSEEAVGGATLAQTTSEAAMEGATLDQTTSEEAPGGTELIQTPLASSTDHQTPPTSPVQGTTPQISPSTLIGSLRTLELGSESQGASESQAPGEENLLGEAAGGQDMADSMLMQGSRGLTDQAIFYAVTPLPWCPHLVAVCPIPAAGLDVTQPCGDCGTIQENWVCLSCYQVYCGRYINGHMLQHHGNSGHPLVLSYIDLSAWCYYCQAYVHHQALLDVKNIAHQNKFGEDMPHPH

[1] = test system: Human melanoma WM164 cells; assay: HDAC assay in WM164 cells; format: cell-based; details: different concentrations
[2] = test system: Human melanoma WM164 cells; assay: Immunoblot of acetylated tubulin in WM164 cells; format: cell-based; details: different concentrations, presence or absence of IL-6 (30 ng/uL) or IFNg (100 ng/uL)
Protocol: Human Melanoma cells WM164 were cultured in RPMI 1640 media, supplemented with 10% FBS, penicillin/streptomycin (50 U/ml), L-glutamine (2 mM), and 2-mercaptoethanol (50 μM) (complete media), and grown under humidified conditions at 37° C. and 5% CO2.
The cells were lysed in a buffer containing 280 mM NaCl, 50 mM Tris HCL PH 8.0, 0.5% Igepal, 5 mM MgCl2, 10% glycerol and 1× protease inhibitor (Roche), phosphatase inhibitor (Santa Cruz Biotechnology). Lysates were sonicated on ice for […] (2 cycles of 30 s on, 30 s rest) and then mixed with 6× gel loading buffer and boiled for 5 minutes. Samples were then resolved on 10% or 4-15% gradient gels and transferred to nitrocellulose membranes. Membranes were blocked with 5% milk-PBS-Tween. Bands were detected by scanning blots with an LI-COR Odyssey imaging system using both 700 and 800 channels. The antibodies used for immunobloting included Anti-acetyl-α-Tubulin (SC-23950) and anti-α-Tubulin (SC-32293), which were purchased from Santa Cruz Biotechnology. Anti-HDAC6 (C0226) was from Assay Biotech. Anti-GAPDH (68795) was from Sigma Aldrich. Anti STAT3 (12640), anti P-STAT3 Y-705 (9138), anti P-STAT3 S727 (9136), and anti Acetil-STAT3 (2523) were purchased from Cell signaling. Anti PD-L1 (PA5-28115) was obtained from Thermo Scientific. Anti-FLAG (F1804) antibody was from Sigma. […]

[3] = test system: Human melanoma WM164 cells; assay: Cytotoxicity assay (CellTox) in WM164 cells; format: cell-based; details: different concentrations, 24 hour reading
Protocol: All cells were cultured in RPMI 1640 media, supplemented with 10% FBS, penicillin/streptomycin (50 U/ml), L-glutamine (2 mM), and 2-mercaptoethanol ([…]) (complete media), and grown under humidified conditions at 37° C. and 5% CO2.
Cells were plated at a desired density in a black, flat clear bottom, 96 well plate. After 24 hours of cell growth, the media was removed from all the wells, fresh media was added with the fluorescent CellTox dye, using the manufactured protocol. The plate was then treated with the compounds of interest at the various concentrations of the compound. Immediately after plating, a baseline reading was performed. The plate was then incubated for 24 hours before the next reading was done, which was considered the 24 hour reading. Assay measurements were collected using the SoftMax Pro Microplate Data Acquisition and Analysis Software paired with Molecular Devices spectrophotometer (SpectraMax).
Human melanoma WM164 cells were treated with different concentrations SS-2-08 and SS-01-100 to evaluate the HDAC activity associated with the potential cytotoxic effect of these compounds.

[4] = test system: Salmonella typhimurium (TA98 and TA1537); assay: Mini-Ames test; format: cell-based; details: two Salmonella typhimurium strains, presence and absence of S9 mix
Protocol: […]. SS-2-08 was incubated with two strains of Salmonella typhimurium (TA98 and TA1537) in the presence and absence of mammalian microsomal enzymes (S9 mix) to investigate the possible mutagenicity of this compound. […].

[5] = Hepatocyte stability, human; format: in vitro ADME; details: human hepatocytes
hERG = hERG (Homo sapiens, UniProt Q12809); assay: cell-based
SM1 melanoma tumor = assay: Syngeneic SM1 murine melanoma tumor model; format: in vivo, C57/BL/6 mice; details: 25 mg/kg and 50 mg/kg intraperitoneally, three times a week
Protocol: Animal experiments involving mice were performed in accordance to all approved protocols by the IACUC at The George Washington University. C57/BL/6 mice were obtained from Charles River (Massachusetts-Wilmington, USA). Mice for the in vivo tumor studies were subcutaneously injected in the right flank with 1.0×10^6 SM1 melanoma cells suspended in 100 μL 1× Phosphate Buffer Saline (PBS). After subcutaneous injection, tumor growth was monitored until they became palpable. Once palpable (5-8 mm in diameter), the animals were then treated with a vehicle control, or SS-2-08 at a dose of 25 mg/kg and 50 mg/kg, intraperitoneally, three times a week. Tumor growth was recorded twice a week. When the tumors reached 4000 mm^3, mice were euthanized. The values collected are represented as the mean tumor volume (mm^3) and standard deviation for treatment groups.

[6] = Hepatocyte stability, mouse; format: in vitro ADME; details: mouse hepatocytes
[7] = Liver microsomal stability, human; format: in vitro ADME; details: human liver microsomes
[8] = test system: Murine melanoma SM1 cells; assay: ApoTox-Glo Triplex Assay, apoptosis; format: cell-based
Protocol: Murine melanoma SM1 cells were cultured in RPMI 1640 medium supplemented with: 1% minimum essential medium (MEM) non-essential amino acids solution, 10% fetal bovine serum (FBS), and 1% penicillin-streptomycin (P/S) then grown under humidified conditions at 37° C. and 5% CO2.
The assay controls—Digitonin (D141-100MG), Ionomycin (I064-1MG) and Mitomycin C (M4287-2MG)—were purchased from Sigma. Through a control plate evaluation, the optimal control concentration was selected for HDACi on the compound plates—30 μg/mL Digitonin, 100 μM Ionomycin, and 25 μg/mL Mitomycin.
Murine melanoma cells were treated with individual HDACi along with the protocol recommended assay controls. Following the manufacturers protocol, Viability/Cytotoxity reagents were added—fluorescence was measured at […] 400Ex/505Em (viability) and 485Ex/520Em (cytotoxicity). Next, the Caspase 3/7 reagent was added, after incubation, luminescence was measured at Lm578 (apoptosis). Assay measurements were collected using the SpectraMax. During analysis, LBH is used as the control compound.

[9] = Liver microsomal stability, mouse; format: in vitro ADME; details: mouse liver microsomes

T1 sequence (Q13547 whole entry, canonical isoform): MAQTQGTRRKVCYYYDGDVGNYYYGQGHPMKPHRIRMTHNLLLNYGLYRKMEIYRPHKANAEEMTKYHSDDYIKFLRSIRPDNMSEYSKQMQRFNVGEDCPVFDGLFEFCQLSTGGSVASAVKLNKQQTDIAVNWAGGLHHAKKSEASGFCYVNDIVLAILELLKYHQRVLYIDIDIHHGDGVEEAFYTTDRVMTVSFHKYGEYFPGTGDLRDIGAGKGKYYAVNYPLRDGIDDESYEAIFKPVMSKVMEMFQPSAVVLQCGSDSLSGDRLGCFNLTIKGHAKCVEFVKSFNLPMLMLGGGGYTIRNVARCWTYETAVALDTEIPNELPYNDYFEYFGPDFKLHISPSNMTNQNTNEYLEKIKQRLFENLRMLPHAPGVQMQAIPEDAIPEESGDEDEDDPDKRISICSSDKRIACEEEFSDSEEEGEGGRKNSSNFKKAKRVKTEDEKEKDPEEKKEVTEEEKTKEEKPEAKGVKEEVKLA
Chain of hERG (Q12809 whole entry): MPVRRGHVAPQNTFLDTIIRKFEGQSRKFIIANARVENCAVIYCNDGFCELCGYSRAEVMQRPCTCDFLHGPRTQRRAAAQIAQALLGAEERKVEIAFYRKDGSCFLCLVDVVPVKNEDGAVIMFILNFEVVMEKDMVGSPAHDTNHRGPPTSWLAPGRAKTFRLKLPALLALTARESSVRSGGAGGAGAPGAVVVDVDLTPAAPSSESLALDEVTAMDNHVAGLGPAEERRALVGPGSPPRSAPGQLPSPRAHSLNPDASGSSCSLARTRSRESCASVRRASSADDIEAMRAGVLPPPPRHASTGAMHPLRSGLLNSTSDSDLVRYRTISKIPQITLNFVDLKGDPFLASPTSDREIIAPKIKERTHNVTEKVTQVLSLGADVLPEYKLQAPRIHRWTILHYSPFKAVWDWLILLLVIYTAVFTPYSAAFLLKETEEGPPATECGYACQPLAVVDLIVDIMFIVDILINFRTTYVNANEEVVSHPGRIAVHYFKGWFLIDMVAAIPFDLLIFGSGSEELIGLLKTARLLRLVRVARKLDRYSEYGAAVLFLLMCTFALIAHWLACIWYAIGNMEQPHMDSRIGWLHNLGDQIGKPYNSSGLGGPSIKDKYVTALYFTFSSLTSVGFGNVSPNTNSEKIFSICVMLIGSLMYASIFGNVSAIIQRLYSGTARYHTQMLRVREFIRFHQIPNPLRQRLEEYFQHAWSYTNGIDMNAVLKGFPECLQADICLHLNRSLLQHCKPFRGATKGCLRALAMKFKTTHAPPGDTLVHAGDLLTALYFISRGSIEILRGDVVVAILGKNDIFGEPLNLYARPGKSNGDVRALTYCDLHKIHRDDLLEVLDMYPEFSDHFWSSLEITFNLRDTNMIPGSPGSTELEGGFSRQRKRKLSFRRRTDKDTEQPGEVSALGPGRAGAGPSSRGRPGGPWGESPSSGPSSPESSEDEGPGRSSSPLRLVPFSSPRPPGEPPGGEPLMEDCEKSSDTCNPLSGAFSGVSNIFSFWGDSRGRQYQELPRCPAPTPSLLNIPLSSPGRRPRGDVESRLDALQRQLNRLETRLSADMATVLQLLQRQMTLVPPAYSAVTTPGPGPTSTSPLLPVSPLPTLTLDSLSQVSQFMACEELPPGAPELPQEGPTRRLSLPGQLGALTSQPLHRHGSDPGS

## CC1(C)CCN(CCCCc2cc(C(=O)NO)no2)c2ccc(Cl)cc21 [SS-4-02, 5-(4-(6-chloro-4,4-dimethyl-3,4-dihydroquinolin-1(2H)-yl)butyl)-N-hydroxyisoxazole-3-carboxamide]
Human HDAC1
  IC50: 174000 nM
Human HDAC6
  IC50: 4360 nM
  Selectivity HDAC1/HDAC6: 40

## O=C(NCCc1cc(C(=O)NO)no1)c1ccccc1 [SS-1-100, 5-(2-Benzamidoethyl)-N-hydroxyisoxazole-3-carboxamide]
Human HDAC1
  IC50 (nM) HDAC1: No inhibition
[1]
  HDAC activity: reduced the HDAC activity in a dose-dependent manner
Human HDAC6
  IC50: 194 nM
[2]
  levels of acetylated tubulin: increased
[3]
  cytotoxicity: minimal cytotoxicity effects

## O=C(NCCc1cc(C(=O)NO)no1)c1cccc(-c2ccccc2)c1 [SS-3-67, 5-(2-([1,1′-biphenyl]-3-ylcarboxamido)ethyl)-N-hydroxyisoxazole-3-carboxamide]
Human HDAC1
  IC50: 2040 nM
Human HDAC6
  IC50: 24.1 nM
  Selectivity HDAC1/HDAC6: 85

## O=C(NO)c1cc(CCCOc2ccc(Cl)c(Cl)c2)on1 [SS-4-10, 5-(3-(3,4-dichlorophenoxy)propyl)-N-hydroxyisoxazole-3-carboxamide]
Human HDAC6
  IC50: 195 nM

## O=C(NCCc1cc(C(=O)NO)no1)c1ccc(Cl)c(Cl)c1 [SS-2-08, 5-(2-(3,4-dichlorobenzamido)ethyl)-N-hydroxyisoxazole-3-carboxamide]
[4]
  Mini-Ames test: No significant number of revertant colonies; also recorded: Negative
[1]
  HDAC activity: reduced the HDAC activity in a dose-dependent manner
[5]
  Hepatocyte stability (t1/2 min) Human: 1.8 h
hERG
  IC50: > 30000 nM
SM1 melanoma tumor
  tumor growth: reduces in vivo tumor growth
[6]
  Hepatocyte stability (t1/2 min) Mouse: 0.367 h
[7]
  Liver microsomal stability (t1/2 min, with NADPH) Human: 2.25 h
[2]
  levels of acetylated tubulin: increased
[8]
  apoptosis (Caspase 3/7): does not induce apoptosis
[9]
  Liver microsomal stability (t1/2 min, with NADPH) Mouse: 0.617 h
[3]
  cytotoxicity: minimal cytotoxicity effects

## O=C(NO)c1cc(CCCCN2CCCc3cc(Cl)ccc32)on1 [SS-4-01, 5-(4-(6-chloro-3,4-dihydroquinolin-1(2H)-yl)butyl)-N-hydroxyisoxazole-3-carboxamide]
Human HDAC1
  IC50: 44000 nM
Human HDAC6
  IC50: 1990 nM
  Selectivity HDAC1/HDAC6: 22

## O=C(NO)c1cc(CCCCn2ccc3cc(Cl)c(Cl)cc32)on1 [SS-3-94, 5-(4-(5,6-dichloro-1H-indol-1-yl)butyl)-N-hydroxyisoxazole-3-carboxamide]
Human HDAC1
  IC50: 11200 nM
Human HDAC6
  IC50: 693 nM
  Selectivity HDAC1/HDAC6: 16

## O=C(NCCc1cc(C(=O)NO)no1)c1ccc2ccccc2c1 [SS-3-66, 5-(2-(2-naphthamido)ethyl)-N-hydroxyisoxazole-3-carboxamide]
Human HDAC1
  IC50: 3030 nM
Human HDAC6
  IC50: 10.3 nM
  Selectivity HDAC1/HDAC6: 294

## O=C(NO)c1cc(CCCCN2c3ccc(Cl)cc3CCc3cc(Cl)ccc32)on1 [SS-1-54, 5-(4-(2,8-dichloro-10,11-dihydro-5H-dibenzo[bf]azepin-5-yl)butyl)-N-hydroxyisoxazole-3-carboxamide]
Human HDAC1
  IC50 (nM) HDAC1: No inhibition
Human HDAC6
  IC50: 1340 nM
